Data set [1] relates to mice. Kind of data set: lethality / safety after i.v. or s.c. administration. Format: in vivo. How it is done: Therefore, the desired route of administration for these compounds is subcutaneous. Thus, the structural paradigm exemplified by BCH1774 can be modified while maintaining exclusion from the central nervous system even at doses as high as 100 mg kg^-1 s.c. and the deleterious i.v. toxicity can be minimized. Thus BCH2463 is not lethal to mice at doses at least as high as 20 mg kg^-1 (i.v.).

Data set [2] has as its system mice. Put plainly: PBQ (phenylquinone) induced writhing assay. Set-up: ED50 value: unit not given beside the values. Format: in vivo. Particulars: for ED50 value: as shown in Table 1, PBQ writhing, unit not given; for peripheral analgesia: statement in words, writhing compared with hot plate. The source says: (§1) The term "ED50" as shown in table 1 for the PBQ writhing assays is defined as the dose of drug which induces a 50% reduction in the number of writhes observed compared to the control. The term "ED50" used in the hot-plate assays is defined as the dose of drug required to increase the latency of response 2-fold compared to controls and was determind by parallel-line probit analysis.
(§2) PBQ (phenyl-ρ-benzoquinone) induced writhing in mice is an assessment of both central and peripheral analgesia. For experimental protocol see Sigmund et al., Proc. Soc. Exp. Biol. Med., 95, p. 729 (1957) which is incorporated herein by reference. Central analgesia was determined by the inhibition of a hot plate response in mice. For experimental protocol see G. Woolfe and A. Macdonald, J. Pharmacol. Exp. Ther., 80, p.300 (1944) which is incorporated herein by reference. Assays measuring opioid receptor binding affinities for µ and δ receptors as well as GPI and MVD assays were determined through experimental protocol set out in Schiller et al., Biophys. Res. Commun., 85, p.1322 (1975) incorporated herein by reference.
The test was performed on CD #1 male mice weighing between 18 and 22g. The mice were weighed and marked. They were injected, by intra-peritoneal route, with 0.3ml/20g by weight with a solution of phenylquinone at 0.02%. The contortions which appeared during a 15 minute time period following the injection were counted. The phenylquinone was injected at time intervals of 5, 20 or 60 minutes after administration of the compound (or medium, or standard) by subcutaneous route. It was injected at time intervals of 60 minutes after the administration of the compound (or medium, or standard) by oral route;
The 0.02% phenylquinone^3 solution was prepared in the following fashion. 20mg of phenylquinone was dissolved in 5ml ethanol 90% (sigma, reagent, alcohol). The dissolved phenylquinone was slowly added to 95 ml of distilled water continuously shaken and preheated (not boiled). The phenylquinone solution was, at all times protected from light and a new solution was prepared every day for the test. It is recommended to wait 2 hours before using the phenylquinone solution. ** 2-phenyl-1,4-benzoquinone (Sigma)
The test may be carried out on 5 mice at the same time. Each group usually contained 10 mice. If an antagonist, such as naloxone, was used, it was administered 20 minutes before the compound (or the medium, or the standard) by intra-peritoneal route.
Background: An intraperitoneal irritant provokes the stretching counted in writhing tests.

Data set [3] has as its system mice. Kind of data set: hot plate test (central analgesia). Format: in vivo. The conditions noted are these: for central analgesic effect: mouse hot plate test, even at doses of 100 mg/kg.
From the text: as §1, §2
For this test, CD #1 male mice weighing between 20 and 25g were used. The mice were weighed, marked, and divided into groups of 10.
The mice were usually treated by subcutaneous injection of the compound (or the standard or the medium) in an injection volume equivalent to 0.1 ml/10g p.c. (10ml/kg). If an antagonist such as Nalaxone or N-methyl-Levallorphan was used, it was administered intra-peritoneally 20 minutes before the compound (or the standard, or the medium) was administered. The injection volume was also 0.1 ml/10g p.c. The dose of the antagonist was 10 mg/kg.
The mice were individually evaluated for reaction time on the hot plate. The temperature of the hot plate (Sorel, model DS37) was set at 55°C. […] The mice may be observed at different time intervals after administration of the compound (or medium, or standard). The time intervals may be 30, 60 or 120 minutes (or other).
For each time reading, the average reaction time of the control group was multiplied by 1.5. The reaction time of each treated mouse was compared to the "control average X 1.5.". […] The number of analgesic mice in a group determined the analgesic percentage of the compound for this reading.
(In general: Thermal pain tests record how soon the animal reacts.)

Data set [4] in a line: degradation on exposure to brush border kidney membranes. Format: in vitro ADME. The conditions noted are these: exposed to brushborder kidney membranes. The source says:
Many of the compounds listed in Table 1 show good µ-receptor binding but show weak analgesic effect in the mouse writhing assay. This anomaly may be due to rapid proteolysis, rapid clearence, or both. […] These three compounds are H-Tyr-D-Nva-Phe-Phe-NH2 (BCH2462), H-Tyr-D-Ser-Phe-Phe-NH2 (BCH2463), and H-Tyr-D-Arg-Phe-Phe-NH2 (BCH2687).
The effects of inhibition of proteolytic metabolism of BCH2463 by the inhibitor DL-Thiorphan has been studied and also the metabolic breakdown of BCH2463 mediated by brush border kidney membranes. The data obtained indicate that the kidney may be the principal site of clearance and metabolism for the compound BCH2463. From Figure 2, it appears that the endopeptidase enzyme EC24-11, which is inhibited by DL-thiorphan, is the preliminary mediator of BCH2463 proteolysis by brush border kidney extract.

Molecules are shown by their SMILES. Square brackets hold non-standard residues; d marks the D form. Peptide text beside a SMILES is read from it. dNva = CCC[C@@H](N)C(=O)O

Regarding `C[C@@H](NC(=O)[C@@H](N)Cc1ccc(O)cc1)C(=O)N[C@@H](Cc1ccccc1)C(=O)N[C@@H](Cc1ccccc1)C(N)=O` [BCH1774, H-Tyr-D-Ala-Phe-Phe-NH2] (H-Y[dA]FF-NH2), the “lethal effects upon mice” value in the data set with mice [1] (1-5 mg kg^-1 i.v. bolus dose) is reported as “exhibited lethal effects”. In the data set with mice [2] (20 mg/kg s.c. of BCH1774 compared with 30 mg/kg s.c. of BCH2463 (Figure 3)), the “duration in vivo of analgesic effects” value was “lasted longer than for BCH2463”. In the data set with mice [2], this compound displayed an ED50 value of 1.4. The central analgesic effect entry with mice [3] is reported as “lack of analgesic effect”. For the same compound, the “time within which rapidly degraded” value in data set [4] lay within 15 to 30 min.

In the case of `CCC[C@@H](NC(=O)[C@@H](N)Cc1ccc(O)cc1)C(=O)N[C@@H](Cc1ccccc1)C(=O)N[C@@H](Cc1ccccc1)C(N)=O` [BCH2462, H-Tyr-D-Nva-Phe-Phe-NH2] (H-Y[dNva]FF-NH2), the “lethal effects upon mice” value in the data set with mice [1] (1-5 mg kg^-1 i.v. bolus dose) is “exhibited lethal effects”. Moreover, in the data set with mice [2], the ED50 value worked out at 2.7 and the peripheral analgesia entry is on record as “exhibit peripheral analgesia”. In the data set with mice [3] (Figs. 1C, 1D, dose not given), the reaction time entry is listed as “approximately 8 seconds”. Besides, in the data set on mice [3], the central analgesic effect entry is on record as “No central analgesic effect was observed”.

As usually defined, the ED50 is the dose at which the effect has come halfway, by size or by number of responders. As to `NC(=O)[C@H](Cc1ccccc1)NC(=O)[C@H](Cc1ccccc1)NC(=O)[C@@H](CO)NC(=O)[C@@H](N)Cc1ccc(O)cc1` [BCH2463, H-Tyr-D-Ser-Phe-Phe-NH2] (H-Y[dS]FF-NH2), the “lethal effects upon mice” value with mice [1] (doses up to 20 mg kg^-1 i.v.) is listed as “did not exhibit any lethal effects”. For the same compound, in the data set on mice [2], the ED50 value came out at 0.5 and the peripheral analgesia result is given as “exhibit peripheral analgesia”. This compound also had a median effective dose (ED50) with mice [2] (mouse s.c., at 20 minutes post administration (Figure 2)) of 0.5 mg/kg. Further, the reaction time entry with mice [3] (mice treated with 100 mg/kg (Fig 1B), control approximately 7 seconds) is “about 9 seconds”. For the same compound, the central analgesic effect result in the data set with mice [3] is listed as “No central analgesic effect was observed”.

`N=C(N)NCCC[C@@H](NC(=O)[C@@H](N)Cc1ccc(O)cc1)C(=O)N[C@@H](Cc1ccccc1)C(=O)N[C@@H](Cc1ccccc1)C(N)=O` [BCH2687, H-Tyr-D-Arg-Phe-Phe-NH2] (H-Y[dR]FF-NH2): in the data set with mice [2], the ED50 value turned out to be 0.5 and the peripheral analgesia entry was “exhibit peripheral analgesia”. For the same compound, the reaction time result in the data set with mice [3] (Figs. 1C, 1D, dose not given) is given as “approximately 8 seconds”. Besides, the central analgesic effect result in the data set with mice [3] is recorded as “No central analgesic effect was observed”.

The values are drawn from patent EP1164141A2, “Opioid peptides and their use for treatment of pain” (AstraZeneca AB, priority 1994, dated 2001).
